Experimental data published in patent US10407467B2, “Polymyxin derivatives and their use in combination therapy together with different antibiotics” (priority 2013, dated 2019).
Where a name gives a salt, the structure may show the parent alone. Read-outs that look alike come from different tables or passages of the source. Bridge positions count the residues as written; N and C are the ends. Square brackets hold non-standard residues; d marks the D form. Peptide text beside a SMILES is read from it. * marks the point of attachment. ξ: configuration not given here. Acetyl(2-(piperazin-1-yl)) = O=C(CN1CCNCC1)*; ξβ3hGly(cHex) = NC(CC(=O)*)C1CCCCC1; Thr(3ξ) = CC(O)[C@H](N)C(=O)O; X10 = NC1(CC(=O)*)CCCCC1; Dab = NCC[C@H](N)C(=O)O; Inp = O=C(O)C1CCNCC1

How the values were obtained:
Acinetobacter baumannii [1] = experiment: MIC, compound in combination with a second agent (broth microdilution); assay type: cell-based; details: 1:1 (wt:wt) combination with Rifampicin, MIC = total drug concentration; for MIC A. baumannii ATCC BAA-747: strain ATCC BAA-747; for MIC A. baumannii CCUG57249: strain CCUG57249; for MIC A. baumannii NCTC 13423: strain NCTC 13423; for MIC A. baumannii NCTC 13424: strain NCTC 13424
How it was run: (§1)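 Equal-mass combos (compound in TFA or sulphate salt form plus second agent); direct colony suspension, 0.5 McFarland; duplicate wells; MIC expressed as summed concentration of both drugs.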

Escherichia coli [2] = experiment: as above; assay type: cell-based; details: 1:1 (wt:wt) combination with Rifampicin, MIC = total drug concentration; for MIC E. coli ATCC25922: strain ATCC25922; for MIC E. coli NCTC9001: strain NCTC9001
How it was run: as §1

Klebsiella pneumoniae [3] = experiment: as above; assay type: cell-based; details: 1:1 (wt:wt) combination with Rifampicin, MIC = total drug concentration; for MIC K. pneumoniae ATCC-BAA-2146: strain ATCC-BAA-2146; for MIC K. pneumoniae CCUG-59348: strain CCUG-59348; for MIC K. pneumoniae ATCC 4352: strain ATCC 4352
How it was run: as §1

Pseudomonas aeruginosa [4] = experiment: as above; assay type: cell-based; details: 1:1 (wt:wt) combination with Rifampicin, MIC = total drug concentration; for MIC P. aeruginosa ATCC 27853: strain ATCC 27853; for MIC P. aeruginosa ATCC CRM-9027: strain ATCC CRM-9027; for MIC P. aeruginosa ATCC-47: strain ATCC-47; for MIC P. aeruginosa CCUG 59626: strain CCUG 59626
How it was run: as §1

P. aeruginosa ATCC 27853 = details: for effect on thigh burdens: 2 or 4 mg/kg IV three times at 1, 3.5 and 6 hours post infection; for Log reduction from vehicle (CFU/g): ATCC 27853, in vivo, iv, 6 h
Acinetobacter baumannii [5] = experiment: MIC, sole activity (no second agent); assay type: cell-based; details: in the absence of Rifampicin; for MIC A. baumannii ATCCBAA-747: strain ATCCBAA-747; for MIC A. baumannii NCTC 13423: strain NCTC13423; for MIC A. baumannii ATCC13424: strain ATCC13424; for MIC A. baumannii CCUG57249: strain CCUG 57249
How it was run: (§2)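 Inoculum: direct colony suspension (18-24 h MH agar), 0.5 McFarland. Medium: cation-adjusted MHB. Up to 4 strains/species; reported relative to Polymyxin B.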

Escherichia coli [6] = experiment: MIC, sole activity (no second agent); assay type: cell-based; details: in the absence of Rifampicin; for MIC E. coli NCTC9001: strain NCTC9001; for MIC E. coli ATCC25922: strain ATCC25922
How it was run: as §2

Klebsiella pneumoniae [7] = experiment: MIC, sole activity (no second agent); assay type: cell-based; details: in the absence of Rifampicin; for MIC K. pneumoniae ATCC 4352: strain ATCC 4352; for MIC K. pneumoniae ATCC-BAA2146: strain ATCC-BAA2146; for MIC K. pneumoniae CCUG-59348: strain CCUG-59348
How it was run: as §2

Pseudomonas aeruginosa [8] = experiment: MIC, sole activity (no second agent); assay type: cell-based; details: in the absence of Rifampicin; for MIC P. aeruginosa ATCC 27853: strain ATCC27853; for MIC P. aeruginosa ATCC-47: strain ATCC-47; for MIC P. aeruginosa ATCCCRM-9027: strain ATCCCRM-9027; for MIC P. aeruginosa CCUG 59626: strain CCUG 59626
How it was run: as §2

## CC(C)C[C@@H]1NC(=O)[C@@H](Cc2ccccc2)NC(=O)[C@H](CCN)NC(=O)[C@@H](NC(=O)[C@H](CCN)NC(=O)[C@@H](NC(=O)CC2(N)CCCCC2)C(C)O)CCNC(=O)[C@H](C(C)O)NC(=O)[C@H](CCN)NC(=O)[C@H](CCN)NC1=O (stereo partly shown) [Example 42, 2-(1-aminocyclohexyl) ethanoyl Polymyxin B nonapeptide TFA salt] (X10-[Thr(3ξ)][Dab][Dab][Dab][dF]L[Dab][Dab][Thr(3ξ)]; lactam 3-C)
Acinetobacter baumannii [1]
  MIC A. baumannii ATCC BAA-747: 0.125 micrograms/mL
  MIC A. baumannii CCUG57249: ≤0.06 micrograms/mL
  MIC A. baumannii NCTC 13423: ≤0.06 micrograms/mL
  MIC A. baumannii NCTC 13424: ≤0.06 micrograms/mL
Escherichia coli [2]
  MIC E. coli ATCC25922: ≤0.06 micrograms/mL
  MIC E. coli NCTC9001: 0.125 micrograms/mL
Klebsiella pneumoniae [3]
  MIC K. pneumoniae ATCC-BAA-2146: 0.125 micrograms/mL
  MIC K. pneumoniae CCUG-59348: 4 micrograms/mL
Pseudomonas aeruginosa [4]
  MIC P. aeruginosa ATCC 27853: 0.125 micrograms/mL
  MIC P. aeruginosa ATCC CRM-9027: 0.25 micrograms/mL
  MIC P. aeruginosa ATCC-47: ≤0.06 micrograms/mL
  MIC P. aeruginosa CCUG 59626: 0.125 micrograms/mL
P. aeruginosa ATCC 27853
  effect on thigh burdens: did not reduce thigh burdens significantly
P. aeruginosa ATCC 27853; 2 mg/kg
  Log reduction from vehicle (CFU/g): −0.03 log CFU/g
P. aeruginosa ATCC 27853; 4 mg/kg
  Log reduction from vehicle (CFU/g): −0.28 log CFU/g

## CC(C)C[C@@H]1NC(=O)[C@@H](Cc2ccccc2)NC(=O)[C@H](CCN)NC(=O)[C@@H](NC(=O)[C@@H](CO)NC(=O)[C@@H](NC(=O)CC(N)C2CCCCC2)[C@@H](C)O)CCNC(=O)[C@H](C(C)O)NC(=O)[C@H](CCN)NC(=O)[C@H](CCN)NC1=O (stereo partly drawn) [Example 48, [3-Amino-3-cyclohexyl-propionyl]-L-Thr-D-Ser-polymyxin B heptapeptide, TFA salt] ({ξβ3hGly(cHex)}-T[dS][Dab][Dab][dF]L[Dab][Dab][Thr(3ξ)]; lactam 3-C)
Acinetobacter baumannii [1]
  MIC A. baumannii ATCC BAA-747: 0.125 micrograms/mL
  MIC A. baumannii CCUG57249: ≤0.06 micrograms/mL
  MIC A. baumannii NCTC 13423: 0.125 micrograms/mL
  MIC A. baumannii NCTC 13424: ≤0.06 micrograms/mL
Escherichia coli [2]
  MIC E. coli ATCC25922: 0.25 micrograms/mL
  MIC E. coli NCTC9001: 0.5 micrograms/mL
Klebsiella pneumoniae [3]
  MIC K. pneumoniae ATCC 4352: 0.25 micrograms/mL
  MIC K. pneumoniae ATCC-BAA-2146: 2 micrograms/mL
  MIC K. pneumoniae CCUG-59348: 2 micrograms/mL
Pseudomonas aeruginosa [4]
  MIC P. aeruginosa ATCC 27853: 1 micrograms/mL
  MIC P. aeruginosa ATCC CRM-9027: 1 micrograms/mL
  MIC P. aeruginosa ATCC-47: 2 micrograms/mL
  MIC P. aeruginosa CCUG 59626: 1 micrograms/mL
Acinetobacter baumannii [5]
  MIC A. baumannii ATCCBAA-747: 0.25 micrograms/mL
  MIC A. baumannii NCTC 13423: 0.25 micrograms/mL
Escherichia coli [6]
  MIC E. coli NCTC9001: >32 micrograms/mL
Klebsiella pneumoniae [7]
  MIC K. pneumoniae ATCC 4352: 0.5 micrograms/mL
  MIC K. pneumoniae ATCC-BAA2146: 4 micrograms/mL
  MIC K. pneumoniae CCUG-59348: >32 micrograms/mL
Pseudomonas aeruginosa [8]
  MIC P. aeruginosa ATCC 27853: 4 micrograms/mL
  MIC P. aeruginosa ATCC-47: 8 micrograms/mL
  MIC P. aeruginosa ATCCCRM-9027: 0.5 micrograms/mL
  MIC P. aeruginosa CCUG 59626: 1 micrograms/mL

## CC(C)C[C@H]1NC(=O)[C@H](CCN)NC(=O)[C@@H](NC(=O)[C@H](CCN)NC(=O)[C@@H](NC(=O)CC(N)C2CCCCC2)C(C)O)CCNC(=O)[C@H](C(C)O)NC(=O)[C@H](CCN)NC(=O)[C@H](CCN)NC(=O)[C@H](C(C)O)NC1=O (stereo partly drawn) [Example 50, 3-Amino-3-cyclohexyl propanoyl-Thr-Dab-(cyclo)Dab*-Dab-DLeu-Thr-Dab-Dab-Thr*] ({ξβ3hGly(cHex)}-[Thr(3ξ)][Dab][Dab][Dab][dL][Thr(3ξ)][Dab][Dab][Thr(3ξ)]; lactam 3-C)
Acinetobacter baumannii [1]
  MIC A. baumannii ATCC BAA-747: 0.125 micrograms/mL
  MIC A. baumannii CCUG57249: 0.125 micrograms/mL
  MIC A. baumannii NCTC 13423: 0.125 micrograms/mL
  MIC A. baumannii NCTC 13424: 0.125 micrograms/mL
Escherichia coli [2]
  MIC E. coli ATCC25922: ≤0.06 micrograms/mL
  MIC E. coli NCTC9001: 0.125 micrograms/mL
Klebsiella pneumoniae [3]
  MIC K. pneumoniae ATCC 4352: ≤0.06 micrograms/mL
  MIC K. pneumoniae ATCC-BAA-2146: 0.25 micrograms/mL
  MIC K. pneumoniae CCUG-59348: 8 micrograms/mL
Pseudomonas aeruginosa [4]
  MIC P. aeruginosa ATCC 27853: 0.125 micrograms/mL
  MIC P. aeruginosa ATCC CRM-9027: 0.125 micrograms/mL
  MIC P. aeruginosa ATCC-47: 0.25 micrograms/mL
  MIC P. aeruginosa CCUG 59626: 0.25 micrograms/mL
Acinetobacter baumannii [5]
  MIC A. baumannii ATCC13424: 4 micrograms/mL
  MIC A. baumannii ATCCBAA-747: 4 micrograms/mL
  MIC A. baumannii CCUG57249: 4 micrograms/mL
  MIC A. baumannii NCTC 13423: 2 micrograms/mL
Escherichia coli [6]
  MIC E. coli ATCC25922: >32 micrograms/mL
  MIC E. coli NCTC9001: >32 micrograms/mL
Klebsiella pneumoniae [7]
  MIC K. pneumoniae ATCC 4352: 4 micrograms/mL
  MIC K. pneumoniae ATCC-BAA2146: 16 micrograms/mL
  MIC K. pneumoniae CCUG-59348: >32 micrograms/mL
Pseudomonas aeruginosa [8]
  MIC P. aeruginosa ATCC 27853: 32 micrograms/mL
  MIC P. aeruginosa ATCC-47: 32 micrograms/mL
  MIC P. aeruginosa ATCCCRM-9027: 0.5 micrograms/mL
  MIC P. aeruginosa CCUG 59626: 2 micrograms/mL

## CC(C)C[C@@H]1NC(=O)[C@@H](Cc2ccccc2)NC(=O)[C@H](CCN)NC(=O)[C@@H](NC(=O)[C@H](CCCCN)NC(=O)[C@@H](NC(=O)C2CCNCC2)C(C)O)CCNC(=O)[C@H](C(C)O)NC(=O)[C@H](CCN)NC(=O)[C@H](CCN)NC1=O (stereo partly drawn) [Example 51, Piperidin-4-yl carbonyl-L-Thr-L-Lys-polymyxin B heptapeptide, TFA salt] (H-[Inp][Thr(3ξ)]K[Dab][Dab][dF]L[Dab][Dab][Thr(3ξ)]; lactam 4-C)
Acinetobacter baumannii [1]
  MIC A. baumannii ATCC BAA-747: ≤0.06 micrograms/mL
  MIC A. baumannii CCUG57249: ≤0.06 micrograms/mL
  MIC A. baumannii NCTC 13423: 0.125 micrograms/mL
Escherichia coli [2]
  MIC E. coli ATCC25922: 0.125 micrograms/mL
  MIC E. coli NCTC9001: 0.5 micrograms/mL
Klebsiella pneumoniae [3]
  MIC K. pneumoniae ATCC 4352: 0.125 micrograms/mL
  MIC K. pneumoniae ATCC-BAA-2146: 1 micrograms/mL
  MIC K. pneumoniae CCUG-59348: 4 micrograms/mL
Pseudomonas aeruginosa [4]
  MIC P. aeruginosa ATCC 27853: 0.25 micrograms/mL
  MIC P. aeruginosa ATCC CRM-9027: 0.25 micrograms/mL
  MIC P. aeruginosa ATCC-47: 0.5 micrograms/mL
  MIC P. aeruginosa CCUG 59626: 0.5 micrograms/mL
Acinetobacter baumannii [5]
  MIC A. baumannii ATCC13424: 4 micrograms/mL
  MIC A. baumannii ATCCBAA-747: 4 micrograms/mL
  MIC A. baumannii CCUG57249: 4 micrograms/mL
  MIC A. baumannii NCTC 13423: 8 micrograms/mL
Escherichia coli [6]
  MIC E. coli ATCC25922: >32 micrograms/mL
  MIC E. coli NCTC9001: >32 micrograms/mL
Klebsiella pneumoniae [7]
  MIC K. pneumoniae ATCC 4352: 2 micrograms/mL
  MIC K. pneumoniae ATCC-BAA2146: >32 micrograms/mL
  MIC K. pneumoniae CCUG-59348: >32 micrograms/mL
Pseudomonas aeruginosa [8]
  MIC P. aeruginosa ATCC-47: 32 micrograms/mL
  MIC P. aeruginosa ATCCCRM-9027: 0.125 micrograms/mL
  MIC P. aeruginosa CCUG 59626: 0.25 micrograms/mL

## CC(C)C[C@@H]1NC(=O)[C@@H](Cc2ccccc2)NC(=O)[C@H](CCN)NC(=O)[C@@H](NC(=O)[C@H](CCN)NC(=O)[C@@H](NC(=O)CN2CCNCC2)C(C)O)CCNC(=O)[C@H](C(C)O)NC(=O)[C@H](CCN)NC(=O)[C@H](CCN)NC1=O (stereo partly shown) [Example 52, (1-piperazine) ethanoyl polymyxin B nonapeptide, trifluoroacetate salt] ({Acetyl(2-(piperazin-1-yl))}-[Thr(3ξ)][Dab][Dab][Dab][dF]L[Dab][Dab][Thr(3ξ)]; lactam 3-C)
Escherichia coli [2]
  MIC E. coli ATCC25922: ≤0.06 micrograms/mL
Klebsiella pneumoniae [3]
  MIC K. pneumoniae ATCC 4352: 0.125 micrograms/mL
  MIC K. pneumoniae ATCC-BAA-2146: 1 micrograms/mL
  MIC K. pneumoniae CCUG-59348: 8 micrograms/mL
Pseudomonas aeruginosa [4]
  MIC P. aeruginosa ATCC 27853: 0.125 micrograms/mL
  MIC P. aeruginosa CCUG 59626: 0.125 micrograms/mL
P. aeruginosa ATCC 27853
  effect on thigh burdens: did not reduce thigh burdens significantly
P. aeruginosa ATCC 27853; 2 mg/kg
  Log reduction from vehicle (CFU/g): −0.14 log CFU/g
P. aeruginosa ATCC 27853; 4 mg/kg
  Log reduction from vehicle (CFU/g): −0.18 log CFU/g
